Reference: PubChem BioAssay AID2060883 (Molecular Pharmacology Branch, DTP, NCI, 2025)
“And” between values parts separate entries of the source, which are not always exact repeats. Identical values can stand only once.

Tested on: 843782-103-R-J1-PDC complex spheroid viability
Assay: Anticancer human tumor 843782-103-R-J1-PDC patient-derived lung adenocarcinoma cell line growth inhibition [RAS]
Settings: for viability, T/C: stronger effect = lower value; active = viability on the fitted dose curve at most 10% of control; inactive = the rest
Outline: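 Multi-cell-type spheroids: tumor cells plus HUVEC endothelial cells and mesenchymal stem cells. RAS-pathway inhibitors were combined with targeted agents, each dosed in half-log steps down from clinical Cmax, or from 10 microM when Cmax was unknown.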

[1] = curve of first compound, second compound 0.000949 µM
[2] = curve of first compound, second compound 0.003 µM
[3] = curve of first compound, second compound 0.00949 µM
[4] = curve of first compound, second compound 0.03 µM
[5] = curve of first compound, second compound 0.0949 µM
[6] = curve of first compound, second compound 0.3 µM
[7] = second compound 0.000949 µM, first compound 0.00316 µM
[8] = second compound 0.000949 µM, first compound 0.01 µM
[9] = second compound 0.000949 µM, first compound 0.0316 µM
[10] = second compound 0.000949 µM, first compound 0.1 µM
[11] = second compound 0.000949 µM, first compound 0.316 µM
[12] = second compound 0.000949 µM, first compound 1 µM
[13] = second compound 0.003 µM, first compound 0.00316 µM
[14] = second compound 0.003 µM, first compound 0.01 µM
[15] = second compound 0.003 µM, first compound 0.0316 µM
[16] = second compound 0.003 µM, first compound 0.1 µM
[17] = second compound 0.003 µM, first compound 0.316 µM
[18] = second compound 0.003 µM, first compound 1 µM
[19] = second compound 0.00949 µM, first compound 0.00316 µM
[20] = second compound 0.00949 µM, first compound 0.01 µM
[21] = second compound 0.00949 µM, first compound 0.0316 µM
[22] = second compound 0.00949 µM, first compound 0.1 µM
[23] = second compound 0.00949 µM, first compound 0.316 µM
[24] = second compound 0.00949 µM, first compound 1 µM
[25] = second compound 0.03 µM, first compound 0.00316 µM
[26] = second compound 0.03 µM, first compound 0.01 µM
[27] = second compound 0.03 µM, first compound 0.0316 µM
[28] = second compound 0.03 µM, first compound 0.1 µM
[29] = second compound 0.03 µM, first compound 0.316 µM
[30] = second compound 0.03 µM, first compound 1 µM
[31] = second compound 0.0949 µM, first compound 0.00316 µM
[32] = second compound 0.0949 µM, first compound 0.01 µM
[33] = second compound 0.0949 µM, first compound 0.0316 µM
[34] = second compound 0.0949 µM, first compound 0.1 µM
[35] = second compound 0.0949 µM, first compound 0.316 µM
[36] = second compound 0.0949 µM, first compound 1 µM
[37] = second compound 0.3 µM, first compound 0.00316 µM
[38] = second compound 0.3 µM, first compound 0.01 µM
[39] = second compound 0.3 µM, first compound 0.0316 µM
[40] = second compound 0.3 µM, first compound 0.1 µM
[41] = second compound 0.3 µM, first compound 0.316 µM
[42] = second compound 0.3 µM, first compound 1 µM
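Also: viability read after seven days of compound exposure.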

C=CC(=O)N1CCN(c2nc(OCC3CCCN3C)nc3c(F)c(-c4nc(N)cc(C)c4C(F)(F)F)c(Cl)cc23)C(C)C1 (stereo not drawn) + CCn1c(-c2cc(N3CCN(C)CC3)cnc2C(C)OC)c2c3cc(ccc31)-c1csc(n1)CC(NC(=O)C1CC1C)C(=O)N1CCCC(N1)C(=O)OCC(C)(C)C2
inactive: viability, T/C [7] 64.2% | viability, T/C [8] 64.9% | viability, T/C [9] 62.9% | viability, T/C [10] 66.8% | viability, T/C [11] 71.8% | viability, T/C [12] 67.1% | viability, T/C [13] 57.2% | viability, T/C [14] 56.5% | viability, T/C [15] 55% | viability, T/C [16] 55.4% | viability, T/C [17] 55.2% | viability, T/C [18] 60.8% | viability, T/C [19] 33.6% | viability, T/C [20] 38.1% | viability, T/C [21] 36.3% | viability, T/C [22] 37.1% | viability, T/C [23] 37% | viability, T/C [24] 35.8% | viability, T/C [25] 20.3% | viability, T/C [26] 23.1% | viability, T/C [27] 19.3% | viability, T/C [28] 23.8% | viability, T/C [29] 22.7% | viability, T/C [30] 21.6% | viability, T/C [31] 15.4% | viability, T/C [32] 13.7% | viability, T/C [33] 16.6% | viability, T/C [34] 20% | viability, T/C [35] 17.4% | viability, T/C [36] 16.4% | viability, T/C [37] 14.6% | viability, T/C [38] 14.5% | viability, T/C [39] 14.8% | viability, T/C [40] 14.9% | viability, T/C [41] 14.5% | viability, T/C [42] 13.4%
< 3.16 nM: IC50 [3] | IC50 [4] | IC50 [5] | IC50 [6]
> 1000 nM: IC50 [1] | IC50 [2]

C#Cc1c(F)ccc2cc(O)cc(-c3ncc4c(N5CC6CCC(C5)N6)nc(OCC56CCCN5CC(F)C6)nc4c3F)c12 (stereo not drawn)
inactive: viability, T/C (compound 0.0316 µM) 104% [middle of 8 runs] | viability, T/C (compound 0.1 µM) 106% [middle of 8 runs] | viability, T/C (compound 0.316 µM) 106% [middle of 8 runs] | viability, T/C (compound 1 µM) 101% [middle of 8 runs] | viability, T/C (compound 3.16 µM) 85.1% [middle of 8 runs] | viability, T/C (compound 10 µM) 59.7% [middle of 8 runs]
> 10000 nM and 8730 nM: IC50 (compound alone, run of 09/09/2024)

C=CC(=O)Nc1cc(Nc2nccc(-c3cn(C)c4ccccc34)n2)c(OC)cc1N(C)CCN(C)C + CCn1c(-c2cccnc2C(C)OC)c2c3cc(ccc31)N1CCOC(CC(NC(=O)C(C(C)C)N(C)C(=O)C3(F)CCN(C(=O)C#CC(C)(C)N(C)C)CC3)C(=O)N3CCCC(N3)C(=O)OCC(C)(C)C2)C1
194 nM: IC50 [2]
inactive: viability, T/C [7] 75.9% | viability, T/C [8] 60.9% | viability, T/C [9] 68.2% | viability, T/C [10] 45.1% | viability, T/C [11] 33.5% | viability, T/C [12] 31.5% | viability, T/C [13] 68.7% | viability, T/C [14] 57.3% | viability, T/C [15] 66.3% | viability, T/C [16] 64.3% | viability, T/C [17] 39.6% | viability, T/C [18] 30.9% | viability, T/C [19] 67.5% | viability, T/C [20] 69.1% | viability, T/C [21] 73% | viability, T/C [22] 43.9% | viability, T/C [23] 40.8% | viability, T/C [24] 26.8% | viability, T/C [25] 65.9% | viability, T/C [26] 73.6% | viability, T/C [27] 58.9% | viability, T/C [28] 55.3% | viability, T/C [29] 44.4% | viability, T/C [30] 31.9% | viability, T/C [31] 73.4% | viability, T/C [32] 62.6% | viability, T/C [33] 60.8% | viability, T/C [34] 46.9% | viability, T/C [35] 43% | viability, T/C [36] 26.4% | viability, T/C [37] 68% | viability, T/C [38] 66.2% | viability, T/C [39] 63.9% | viability, T/C [40] 51.6% | viability, T/C [41] 35.2% | viability, T/C [42] 31.5%
110 nM: IC50 [6]
92.2 nM: IC50 [5]
78.2 nM: IC50 [1]
167 nM: IC50 [4]
76.4 nM: IC50 [3]

CC(C)NCC(C(=O)N1CCN(c2ncnc3c2C(C)CC3O)CC1)c1ccc(Cl)cc1 (stereo not drawn) + CCn1c(-c2cccnc2C(C)OC)c2c3cc(ccc31)N1CCOC(CC(NC(=O)C(C(C)C)N(C)C(=O)C3(F)CCN(C(=O)C#CC(C)(C)N(C)C)CC3)C(=O)N3CCCC(N3)C(=O)OCC(C)(C)C2)C1
402 nM: IC50 [3]
309 nM: IC50 [4]
174 nM: IC50 [6]
403 nM: IC50 [5]
inactive: viability, T/C [9] 74.5% | viability, T/C [10] 68.8% | viability, T/C [11] 48.5% | viability, T/C [12] 19.6% | viability, T/C [15] 74.1% | viability, T/C [16] 71.3% | viability, T/C [17] 47.5% | viability, T/C [18] 30% | viability, T/C (second compound 0.003 µM, first compound 3.16 µM) 12.4% | viability, T/C [21] 68.2% | viability, T/C [22] 65.3% | viability, T/C [23] 55.9% | viability, T/C [24] 30% | viability, T/C (second compound 0.00949 µM, first compound 3.16 µM) 13.9% | viability, T/C [27] 72.9% | viability, T/C [28] 66% | viability, T/C [29] 50.5% | viability, T/C [30] 24.8% | viability, T/C (second compound 0.03 µM, first compound 3.16 µM) 13.8% | viability, T/C [33] 70.8% | viability, T/C [34] 66.3% | viability, T/C [35] 56.9% | viability, T/C [36] 27.1% | viability, T/C (second compound 0.0949 µM, first compound 3.16 µM) 11.5% | viability, T/C [39] 63.4% | viability, T/C [40] 60% | viability, T/C [41] 39.8% | viability, T/C [42] 23.2% | viability, T/C (second compound 0.3 µM, first compound 3.16 µM) 11.3%
287 nM: IC50 [1]
325 nM: IC50 [2]
active: viability, T/C (second compound 0.000949 µM, first compound 3.16 µM) 10.8% | viability, T/C (second compound 0.000949 µM, first compound 10 µM) 4.86% | viability, T/C (second compound 0.003 µM, first compound 10 µM) 7.3% | viability, T/C (second compound 0.00949 µM, first compound 10 µM) 4.79% | viability, T/C (second compound 0.03 µM, first compound 10 µM) 6.84% | viability, T/C (second compound 0.0949 µM, first compound 10 µM) 5.05% | viability, T/C (second compound 0.3 µM, first compound 10 µM) 5.97%
